Data taken from paper PMC3486420, “In Vitro and In Vivo Characterizations of Chiglitazar, a Newly Identified PPAR Pan-Agonist” (PPAR Research, 2012).

Columns and labels:
PPARδ [1] = biological target: T1, PPARδ (Homo sapiens, UniProt Q03181); experiment: PPARδ transactivation reporter gene assay in SMMC-7721 cells; assay type: cell-based; settings: SMMC-7721 cells
T1 construct: expressed in transfected cells; host or cells: SMMC-7721 or U2OS
T1 sequence (Q03181 1-441): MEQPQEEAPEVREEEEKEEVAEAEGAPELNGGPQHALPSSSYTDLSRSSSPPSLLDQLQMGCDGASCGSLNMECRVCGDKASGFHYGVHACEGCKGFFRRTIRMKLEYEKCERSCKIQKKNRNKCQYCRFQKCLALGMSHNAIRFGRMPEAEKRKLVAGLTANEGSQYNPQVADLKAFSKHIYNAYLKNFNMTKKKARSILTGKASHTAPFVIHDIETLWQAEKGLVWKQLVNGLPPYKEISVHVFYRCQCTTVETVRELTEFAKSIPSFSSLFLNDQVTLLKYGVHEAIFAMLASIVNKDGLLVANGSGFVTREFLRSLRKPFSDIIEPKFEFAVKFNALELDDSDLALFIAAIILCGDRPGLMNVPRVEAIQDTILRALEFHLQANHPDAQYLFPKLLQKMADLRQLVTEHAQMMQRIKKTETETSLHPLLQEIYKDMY
T1 sequence (P19793 1-462 partner): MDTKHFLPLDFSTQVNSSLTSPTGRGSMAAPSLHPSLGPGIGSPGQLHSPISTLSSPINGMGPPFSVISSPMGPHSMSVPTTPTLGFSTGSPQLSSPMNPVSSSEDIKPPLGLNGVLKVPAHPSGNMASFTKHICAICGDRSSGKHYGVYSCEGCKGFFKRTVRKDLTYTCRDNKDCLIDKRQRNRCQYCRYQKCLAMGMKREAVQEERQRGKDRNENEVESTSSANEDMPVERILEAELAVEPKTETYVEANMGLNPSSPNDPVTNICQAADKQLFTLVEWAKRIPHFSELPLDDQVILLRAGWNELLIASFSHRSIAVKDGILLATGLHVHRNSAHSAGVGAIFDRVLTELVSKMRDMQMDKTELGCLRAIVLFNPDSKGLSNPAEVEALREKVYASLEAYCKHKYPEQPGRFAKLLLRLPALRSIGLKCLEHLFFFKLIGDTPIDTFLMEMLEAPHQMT

PPARα = biological target: T2, PPARα (Homo sapiens, UniProt Q07869); experiment: PPARα transactivation reporter gene assay in U2OS cells; assay type: cell-based
T2 sequence (Q07869 1-468): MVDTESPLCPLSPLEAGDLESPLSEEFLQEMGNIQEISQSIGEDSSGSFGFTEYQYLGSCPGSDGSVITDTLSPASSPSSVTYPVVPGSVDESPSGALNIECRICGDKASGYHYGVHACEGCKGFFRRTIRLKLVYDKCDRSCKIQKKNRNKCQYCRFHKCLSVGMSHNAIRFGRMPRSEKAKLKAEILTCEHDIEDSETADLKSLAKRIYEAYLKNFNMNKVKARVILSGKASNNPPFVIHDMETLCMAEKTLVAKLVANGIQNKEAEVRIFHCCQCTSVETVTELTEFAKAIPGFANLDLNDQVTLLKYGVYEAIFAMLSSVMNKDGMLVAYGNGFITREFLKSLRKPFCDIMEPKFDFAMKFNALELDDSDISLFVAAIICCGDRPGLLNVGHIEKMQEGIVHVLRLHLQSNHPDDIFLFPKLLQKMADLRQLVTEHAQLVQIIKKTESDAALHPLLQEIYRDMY
T2 sequence (P19793 1-462 partner): T1 sequence (P19793 1-462 partner)

PPARδ [2] = biological target: T1, PPARδ; experiment: PPARδ transactivation reporter gene assay in U2OS cells; assay type: cell-based; settings: U2OS cells
Wistar rats = experiment: Influence in heart weight of Wistar rats, 6-month oral dosing; assay type: in vivo, rat; settings: for Increase in heart weight: 135 mg kg^−1 (~900 mg/m^2) oral daily, 6 months
Experimental: Male and female Wistar rats of 6-week old were randomly divided into 4 groups, 5 for each male and female per group. Animals in different groups were orally treated daily with chiglitazar suspended in water at the doses of 15, 45, and 135 mg kg^−1, or vehicle (water), for 6 months. 24 h after the last treatment, animals were sacrificed and the weight of heart from individual animals was weighed.
Figure 5 Influence on heart weight and tissue distribution of chiglitazar in rats. (a) Wistar rats were orally administered daily with chiglitazar at the dose of 15, 45 and 135 mg kg^−1 for 6 months. 24 h after the last dosing, animals were sacrificed and the heart weight was evaluated. *P < 0.05 compared with control; n = 5 per group. (b) Male Wistar rats were orally administered with a single dose of ^3H-chiglitazar at 12.5 mg kg^−1 (radiation dose 31.7 MBq kg^−1). Rats were sacrificed at 1.5, 4, 8, and 24 h after treatment (n = 5 per time point), and various tissues/organs as indicated were taken for radioactivity measurement. The accumulated area under curves through 0 to 24 h (AUC0–24) was calculated based on individual tissue distribution measured at each time point. (c) The time course distribution of chiglitazar in different tissues at individual time point (1.5, 4, 8, 24 h). Data are expressed as mean ± SE.

[3] = Tissue distribution of 3H-chiglitazar in rats; assay type: in vivo, rat; settings: male Wistar rats, single oral dose 12.5 mg kg^−1 3H-labelled, radioactivity AUC0–24
Experimental: ^3H-chiglitazar was synthesized and provided by the Beijing Institute of Atom Energy with specific activity of 15 Ci mmol^−1 and purity >97%. Tissue distribution of ^3H-chiglitazar in rats was evaluated based on the methods described previously. Briefly, male Wistar rats (~220 g in body weight, 12-week old) were randomly divided into 4 groups (5 per group). After fasted overnight, rats were orally administered with single dose of 12.5 mg kg^−1 of ^3H-chiglitazar (radiation dose 31.7 MBq kg^−1). Rats in different groups were sacrificed at 1.5, 4, 8, and 24 h after dosing. Blood (5–9 mL) was collected via cardiac puncture at the time of sacrifice. […] 1 mL of scintillation fluid was added to each well, and radioactivity was measured by a scintillation counter (Perkin Elmer, Waltham, MA, USA).
Figure 5 Influence on heart weight and tissue distribution of chiglitazar in rats. […] 24 h after the last dosing, animals were sacrificed and the heart weight was evaluated. *P < 0.05 compared with control; n = 5 per group. […] Rats were sacrificed at 1.5, 4, 8, and 24 h after treatment (n = 5 per time point), and various tissues/organs as indicated were taken for radioactivity measurement. The accumulated area under curves through 0 to 24 h (AUC0–24) was calculated based on individual tissue distribution measured at each time point. […] Data are expressed as mean ± SE.

[4] = 24 h treatment, luciferase reporter, hRXR cotransfected, ia: inactive at 10 μM, read-out: PPARδ EC50
[5] = max response compared with 2-Bro at 10 μM

Which EC50 (PPARδ [1]; [4]) does the source give for `O=C(c1ccc(F)cc1)c1ccccc1NC(Cc1ccc(OCCn2c3ccccc3c3ccccc32)cc1)C(=O)O` (stereo not shown) [Chi, 2-[(2-(4-fluorobenzoyl)phenyl)amino]-3-[4-(2-carbazolylethoxy)-phenyl]-propionic acid] here?
The EC50 was 1700 ± 400 nM.

What about the “PPARδ % Max” value (PPARδ [1]; [5]) of the same molecule?
Its value is 123%.

What about the EC50 (PPARα; 24 h treatment, luciferase reporter, hRXR cotransfected, ia: inactive at 10 μM) of the same molecule?
The EC50 was 1200 ± 300 nM.

What about the “PPARα % Max” value (PPARα; max response compared with WY at 50 μM) of the same molecule?
The value was 147%.

And the EC50 (PPARδ [2]; [4])?
The EC50 was 1500 ± 200 nM.

What about the “PPARδ % Max” value (PPARδ [2]; [5]) of the same molecule?
The value was 244%.

What about the “No-effect dose on heart weight (45 mg kg^−1) relative to optimal efficacy dose (10 mg kg^−1)” value (Wistar rats; Wistar rats) of the same molecule?
Its value is “about 4.5 times”.

And the “Microscopical examination of weight-increased hearts” value (Wistar rats; Wistar rats, 135 mg kg^−1, 6 months (data not shown))?
The value was “minimal to mild myocardial hypertrophy”.

What about the Heart weight (Wistar rats; Wistar rats, oral daily 6 months, doses as high as 45 mg kg^−1 (~300 mg/m^2)) of the same molecule?
Its Heart weight is “did not increase”.

What about the “Increase in heart weight” value (Wistar rats; female Wistar rats) of the same molecule?
Its value is “about 20%”.

What about the “Increase in heart weight” value (Wistar rats; male Wistar rats) of the same molecule?
Its value is roughly 12%.

What about the “Tissue distribution: level in kidney, adipose tissue and heart” value [3] of the same molecule?
Its value is “low levels”.

What about the “Tissue distribution: level in plasma, liver and pancreas” value [3] of the same molecule?
Its value is “high levels”.
